Measurements taken from patent US20010053783A1, “PHARMACEUTICAL COMPOUNDS” (priority 1997, published 2001).

Target: human 2A receptor (5-HT2A) (Homo sapiens, UniProt P28223)
Experiment: 5-HT2A receptor binding, displacement of [3H] ketanserin (Nelson et al.)
Conditions: human 2A receptor binding, versus 5-fluoroindolyl propyl comparator
Text: As mentioned above, the compounds of the invention are active at the serotonin, 5-HT2A, receptor.

Sequence of human 2A receptor (5-HT2A) (P28223 whole entry): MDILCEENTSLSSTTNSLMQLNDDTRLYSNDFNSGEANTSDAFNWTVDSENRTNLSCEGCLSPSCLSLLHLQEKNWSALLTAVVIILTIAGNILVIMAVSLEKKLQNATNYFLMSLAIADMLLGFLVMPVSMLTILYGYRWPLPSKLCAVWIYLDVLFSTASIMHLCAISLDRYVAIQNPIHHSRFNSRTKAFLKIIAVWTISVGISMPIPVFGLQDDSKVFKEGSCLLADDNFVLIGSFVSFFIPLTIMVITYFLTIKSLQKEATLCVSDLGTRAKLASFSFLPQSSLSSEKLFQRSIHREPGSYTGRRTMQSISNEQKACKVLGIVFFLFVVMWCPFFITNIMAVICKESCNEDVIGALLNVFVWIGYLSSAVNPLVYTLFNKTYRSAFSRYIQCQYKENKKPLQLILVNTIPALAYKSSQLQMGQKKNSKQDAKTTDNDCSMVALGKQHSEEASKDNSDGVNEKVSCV

## O=S1(=O)N(CCN2CC=C(c3c[nH]c4cc(F)ccc34)CC2)c2cccc3c2N1CCC3 [1-{2-[4-(6-Fluoro-[1H]-indol-3-yl)-1,2,3,6-tetrahydro-1-pyridinyl]-1-ethyl}-5,6-dihydro-1H,4H-1,2,5-thiadiazolo[4,3,2-ij]quinoline-2,2-dioxide]
  times more active than the closest structurally related compound of EP-A 0 433 149: approximately twenty-eight
